Measured values reported in patent US20030017565A1, “COMPOSITION AND METHOD FOR TREATING A POROUS ARTICLE AND USE THEREOF” (priority 1996, published 2003).

How the values were obtained:
[1] = leaching of Japan cedar blocks treated with LSA and chemical agents (Example 4); assay type: physicochemical; conditions: 5% LSA; for Elution Rate (%) Chemical Agent: species measured as bracketed (Copper, Zinc, Nickel, Boron, H = hinokitiol), else the agent named
Experimental: For chemical agents having low solubilities, they were added to aqueous lignosulfonic acid solution after it was warmed to 60 to 90° C., and it was cooled at 25° C. after the chemical agents were suspended, dispersed, dissolved by Vortex-Mixer, […]
The amount of lignosulfonic acid which leached off was determined by measurement of the absorbance at 280 nm, and the amount of the chemical agent which leached off was determined by complex formation and spectrophotometry using PAN (1-(2-pyridylazo)-2-naphthol, Aldrich Chemical Company) or quinalizarin (Wako Pure Chemicals), separation, identification and determination, using HPLC or gas chromatography, or atomic absorption analysis were performed, followed by calculation of the amount of the chemical agents which was eluted. When the chemical agents had absorption at 280 nm, the concentration of lignosulfonic acid was calculated by measuring the absorbance at 280 nm of the chemical agents of which the concentration was measured by the above-described method and subtracting an influence by the chemical agent from the absorbance at 280 nm of the liquid which was eluted. The amounts of the chemical agents and lignosulfonic acid which were eluted were calculated and compared taking the amounts of them injected upon the impregnation treatment as 100%.

[2] = leaching of cypress blocks, Myrothecium roridum enzyme (Example 5); assay type: physicochemical; conditions: 40 ppm Example 2 enzyme, 5% LSA; for Elution Rate (%) LSA: pH 8.2-8.8; for Elution Rate (%) Chemical Agent: pH 8.2-8.8, species as bracketed (Copper, H = hinokitiol), else the agent named
Experimental: (§1) The amounts of the chemical agents and lignosulfonic acid which were eluted were calculated and compared taking the amounts of them injected upon the impregnation treatment as 100%.

[3] = leaching of cypress blocks, bilirubin oxidase (Example 6); assay type: physicochemical; conditions: for Elution Rate (%) LSA: pH 8.1-8.8; for Elution Rate (%) Chemical Agent: pH 8.1-8.8, species as bracketed (Copper, Zinc, Nickel, Boron, H = hinokitiol), else the agent named
Excerpt: Taking the amounts of the lignosulfonic acid (LSA) and chemical agent as injected upon the impregnation treatment as 100%, respectively, the amounts of the substances which were eluted were compared.

[4] = test system: Tyromyces palustris FEPRI 0507; experiment: antifungal test on treated wood, weight loss; assay type: cell-based; conditions: leached wood blocks of Example 10, LSA added, enzyme added, pH of treating liquid 8.1-8.8, 26° C., 12 weeks
Experimental: (§2) After completion of the antifungal operation, the wood blocks were taken out of the incubator and hyphae on the surface thereof were removed sufficiently. After air dried for about 24 hours, the wood blocks were dried sufficiently using a drier and a desiccator in the same manner as described above and their weight was measured. Percent weight loss (%) was calculated by comparing the weight obtained with the weight before the antifungal operation.

[5] = test system: Coriolus versicolor FEPRI 1030; experiment: antifungal test on treated wood, weight loss; assay type: cell-based; conditions: leached wood blocks of Example 10, LSA added, enzyme added, pH of treating liquid 8.1-8.8, 26° C., 12 weeks
Experimental: as §2

[6] = leaching of Japan cedar blocks after initial vacuum and pressure impregnation (Example 10); assay type: physicochemical; conditions: initial vacuum then 10 atm, enzyme added, 5% LSA; for Elution Rate (%) LSA: pH 8.1-8.8; for Elution Rate (%) Chemical Agent: pH 8.1-8.8, species as bracketed (Copper, Zinc, Nickel, H = hinokitiol), else the agent named
Experimental: A reaction mixture for treating wood containing 30 ppm of the freeze-dried product described in Example 1, 5% of commercially available lignosulfonic acid, and one or more various chemical agents was prepared, and Japan cedar wood blocks (3 cm×3 cm×2 cm, butt end: 3 cm×3 cm) were subjected to pressure reduction (initial vacuum) and impregnation treatment under pressure using the reaction mixture in the same manner as in Examples 3 and 4.
The pressure reduction and pressurization were performed by setting a vessel for impregnation operation as shown in FIG. 1 in a pressure reactor (5 liter in volume), conducting initial vacuum from 600 to 720 mmHg for 30 minutes using a vacuum pump, tilting the whole apparatus to allow the treatment liquid to flow toward the wood so that the wood blocks can be dipped in the treatment liquid, and then pressurized at 10 atm for 1 hour by flowing high pressure nitrogen gas in the reactor.
The wood blocks after the impregnation treatment were further subjected to drying/macromolecularization reaction and leaching treatment in the same manner as in Examples 3 and 4. The amounts of the chemical agents and lignosulfonic acid which were eluted were calculated and compared taking the amounts of them injected upon the impregnation treatment as 100%.

[7] = leaching of cypress blocks, peroxidase + alcohol oxidase (Example 7); assay type: physicochemical; conditions: 5 U/ml peroxidase + 5 U/ml alcohol oxidase + 1% methanol; for Elution Rate (%) LSA: pH 8.1-8.8; for Elution Rate (%) Chemical Agent: pH 8.1-8.8, species as bracketed (Copper, Zinc, Boron, H = hinokitiol), else the agent named
Excerpt: The peroxidase used was obtained from horse radish (Type II, Sigma) and the alcohol oxidase used was obtained from Candida boidini (Boehringer Mannheim Biochemica).

[8] = copper retention rate in Japan cedar sapwood after three leachings (Example 23); assay type: physicochemical; conditions: pH of treating liquid 4.6, three leachings of 8 hours
Experimental: Aqueous solutions having the compositions listed in table 15 below were prepared and adjusted to pH 8.5 with sodium hydroxide. Those compositions which contained no ethylenediamine (EDA) nor ethanolamine (MEA) were tested at pH 4.5 since copper is deposited as copper hydroxide in alkaline regions. […] The wood blocks were taken out of the solutions and air-dried at 28 ° C. for 72 hours and then dried in a forced air circulation drier at 60° C. for 48 hours. After the drying, the wood blocks were submerged in 10 fold volume of deionized water at 25° C. with stirring at 300 rpm for 8 hours for leaching. This operation was repeated three times. The rate of copper fixed to wood was calculated from the sum of the amounts of eluted copper ions by the three elution operations to the total amount of copper ions in the solution impregnated in the wood.

[9] = leaching of Japan cedar blocks after reduced pressure impregnation (Example 3); assay type: physicochemical; conditions: no LSA, enzyme not added, pH 4.1
Experimental: The pH was adjusted with sodium hydroxide or sulfuric acid. The reduced pressure impregnation operation was performed by a handy method, i.e., by applying a reduced pressure of 650 to 700 mmHg for 1 hour after dipping the Japan cedar blocks in the treatment liquid and then keeping the blocks at atmospheric pressure for 30 minutes as they were dipped in the treatment liquid. By measuring the weights of each block before and after the impregnation treatment, it was confirmed that as a result of the pressure reduction treatment operation, a sufficient amount of the treating liquid (10 to 14 g) was injected in the blocks. Further, the wood blocks after the impregnation treatment were placed in an incubator at 28° C., for 5 days to effect drying and macromolecularization reaction.

[10] = leaching of Japan cedar blocks, treating mixture with tung oil (Example 8); assay type: physicochemical; conditions: Example 1 enzyme, 5% LSA, 2,000 ppm tung oil
Experimental: as §1

[11] = test system: house termite; experiment: termite preventing test on treated wood, weight reduction; assay type: in vivo; conditions: leached wood blocks of Example 10, LSA added, enzyme added, pH 8.1-8.5, about 40 cm from termite nest, 2 months
Excerpt: The wood blocks were placed on the soil at a distance of about 40 cm around the nest of house termite. After they were left to stand for 2 months, termite preventive properties were observed. […] Then, the dry weight thus obtained was compared with the weight of the wood blocks before the placement on the soil, thus calculating a weight reduction rate.

[12] = in the absence of enzyme (comparison), pH 8.1-8.8
[13] = in the presence of enzyme, Japan cedar, pH of treating agent 8.1-8.8
[14] = in the presence of enzyme, pH 8.1-8.8

| Compound | Elution Rate (%) LSA [1, 12] | Elution Rate (%) Chemical Agent [1, 12] | Elution Rate (%) LSA [1, 13] | Elution Rate (%) Chemical Agent [1, 14] | Elution Rate (%) LSA [2] | Elution Rate (%) Chemical Agent [2] | Elution Rate (%) LSA [3] | Elution Rate (%) Chemical Agent [3] | Weight Loss (%) Tyromyces palustris [4] | Weight Loss (%) Coriolus versicolor [5] | Elution Rate (%) LSA [6] | Elution Rate (%) Chemical Agent [6] | Elution Rate (%) LSA [7] | Elution Rate (%) Chemical Agent [7] | Copper Retention Rate (%) ([8]; enzyme added (20 ppm)) | Copper Retention Rate (%) ([8]; enzyme not added) | Elution Rate (%) Copper [9] | Elution Rate (%) LSA ([10]; pH 8.1-8.5) | Elution Rate (%) Chemical Agent ([10]; pH 8.1-8.5, species as bracketed (Copper, Zinc, Nickel, H = hinokitiol), else the agent named) | Weight Reduction Rate (%) [11] |
| --- | --- | --- | --- | --- | --- | --- | --- | --- | --- | --- | --- | --- | --- | --- | --- | --- | --- | --- | --- | --- |
| (+)-Catechin · H2O [1000 ppm (+)-Catechin · H2O] | 23.4% | 11.3% | 2.7% | 2.8% | 5.2% | 6.6% | 4.4% | 6.3% | 9.9% | 8.3% | 2.1% | 2.0% | 5.3% | 8.7% | – | – | – | – | – | – |
| O=S(=O)([O-])[O-].[Cu+2] [0.04 M CuSO4, copper (II) sulfate] | – | – | – | – | – | – | – | – | – | – | – | – | – | – | 19.3% | 21.8% | 58.5% | – | – | – |
| CC(C)c1cccc(=O)c(O)c1 [1000 ppm Hinokitiol, Hinokitiol] | 24.2% | 14.4% | 0.6% | 3.1% | 2.2% | 7.2% | 1.7% | 5.4% | 2.2% | 1.5% | 0.4% | 2.3% | 4.5% | 6.2% | – | – | – | 1.1% | 0.5% | 2.2% |
| O=C(OC[C@H]1O[C@@H](OC(=O)c2cc(O)c(O)c(OC(=O)c3cc(O)c(O)c(O)c3)c2)[C@H](OC(=O)c2cc(O)c(O)c(OC(=O)c3cc(O)c(O)c(O)c3)c2)[C@@H](OC(=O)c2cc(O)c(O)c(OC(=O)c3cc(O)c(O)c(O)c3)c2)[C@@H]1OC(=O)c1cc(O)c(O)c(OC(=O)c2cc(O)c(O)c(O)c2)c1)c1cc(O)c(O)c(OC(=O)c2cc(O)c(O)c(O)c2)c1 [500 ppm Tannic acid, Tannic acid] | 24.2% | 21.0% | 3.8% | 4.0% | 6.8% | 8.7% | 6.6% | 8.3% | 12.9% | 10.8% | 2.3% | 3.1% | 9.2% | 10.3% | – | – | – | – | – | – |
